Reference: patent publication EP1000039B1 (Wyeth Holdings Corporation, priority 1997, dated 1999)
In brackets after ≈: the same amount, converted by molar mass.

Legend:
[1] = system: Human Epidermoid Tumors (A431); assay: In Vivo Inhibition of the Growth of Human Epidermoid Tumors (A431) in mice; settings: days 1 through 10
[2] = system: A2780DDP; assay: Inhibition of Cancer Cell Growth (Sulforhodamine B); type: cell-based, Human; settings: Homo sapiens, 48 hours exposure, read-out: Inhibition of Cancer Cell Growth as Measured by Cell Number (IC50) A2780DDP
Experimental: (§1) After 48 hours exposure to test compounds, cells were fixed with trichloroacetic acid, and stained with Sulforhodamine B. After washing with trichloroacetic acid, bound dye was solubilized in 10 mM Tris base and optical density was determined using plate reader. Under conditions of the assay the optical density is proportional to the number of cells in the well. […] The test procedure is described in details by Philip Skehan et. al. J.Natl. Canc. […]

[3] = system: SW620; assay: as above; type: cell-based, Human; settings: Homo sapiens, SW-620, 48 hours exposure, read-out: Inhibition of Cancer Cell Growth as Measured by Cell Number (IC50) SW620
Experimental: as §1

[4] = system: MCF7; assay: as above; type: cell-based, Human; settings: Homo sapiens, 48 hours exposure, read-out: Inhibition of Cancer Cell Growth as Measured by Cell Number (IC50) MCF7
Experimental: as §1

[5] = system: A431; assay: as above; type: cell-based, Human; settings: Homo sapiens, A-431, 48 hours exposure, read-out: Inhibition of Cancer Cell Growth as Measured by Cell Number (IC50) A431
Experimental: as §1

[6] = system: SKBR3; assay: as above; type: cell-based, Human; settings: Homo sapiens, SK-BR-3, 48 hours exposure, read-out: Inhibition of Cancer Cell Growth as Measured by Cell Number (IC50) SKBR3
Experimental: as §1

[7] = system: A2780S; assay: as above; type: cell-based, Human; settings: Homo sapiens, 48 hours exposure, read-out: Inhibition of Cancer Cell Growth as Measured by Cell Number (IC50) A2780S
Experimental: as §1

[8] = system: MB435; assay: as above; type: cell-based, Human; settings: Homo sapiens, 48 hours exposure, read-out: Inhibition of Cancer Cell Growth as Measured by Cell Number (IC50) MB435
Experimental: as §1

[9] = system: LOX; assay: as above; type: cell-based, Human; settings: Homo sapiens, 48 hours exposure, read-out: Inhibition of Cancer Cell Growth as Measured by Cell Number (IC50) LOX
Experimental: as §1

[10] = system: Human Epidermoid Tumors (A431); assay: In Vivo Inhibition of the Growth of Human Epidermoid Tumors (A431) in mice
Experimental: BALB/c nu/nu female mice (Charles River, Wilmington, MA) were used in the in vivo standard pharmacological test procedures. Human epidermoid carcinoma cells A-431 (American Type Culture Collection, Rockville, Maryland # CRL-155) were grown in vitro as described above. A unit of 5 X 10^6 cells were injected SC into mice. When tumors attained a mass of between 100 and 150 mg, the mice were randomized into treatment groups (day zero). Mice were treated iP or PO once a day either on days 1, 5, and 9 or on days 1 through 10 post staging with doses of either 80, 40 or 20, or 10 mg/kg/dose of the compound to be evaluated in 0.2% Klucel. Control animals received no drug. Tumor mass was determined every 7 days [(length X width^2)/2) for 28 days post staging. Relative tumor growth (Mean tumor mass on day 7, 14, 21, and 28 divided by the mean tumor mass on day zero) is determined for each treatment group. The %T/C (Tumor/Control) is determined by dividing the relative tumor growth of the treated group by the relative tumor growth of the placebo group and multiplying by 100. A compound is considered to be active if the %T/C is found to be […].

[11] = molecular target: T1, His-tagged cytoplasmic domain of EGFR (Homo sapiens, UniProt P00533); assay: Inhibition of Epidermal Growth Factor Receptor Kinase (EGF-R) using recombinant enzyme, RR-SRC peptide phosphorylation; type: biochemical; settings: recombinant enzyme; average of the number of tests; read-out: IC50
T1 construct: containing the EGFR cDNA encoding amino acids 645 - 1186 preceded by Met-Ala-(His)6; Met-Ala-(His)6 (N); made in house; host or cells: Sf9 insect cells, recombinant baculovirus vHcEGFR52
Experimental: The enzyme used in this assay is the His-tagged cytoplasmic domain of EGFR. […] Sf9 cells in 100 mm plates were infected at an moi of 10 pfu/cell and cells were harvested 48 h post infection. A cytoplasmic extract was prepared using 1% Triton X-100 and applied to Ni-NTA column. After washing the column with 20 mM imidazole, HcEGFR was eluted with 250 mM imidazole (in 50 mM Na2HPO4, pH 8.0, 300 mM NaCl). Fractions collected were dialyzed against 10 mM HEPES, pH 7.0, 50 mM NaCl, 10% glycerol, 1ug/mL antipain and leupeptin and 0. 1 mM Pefabloc SC. The protein was frozen in dry ice/methanol and stored -70°C.
For the enzyme reaction, 10 uL of each inhibitor (at various concentrations) were added to each well of a 96-well plate. To this was added 3 uL of enzyme (1: 10 dilution in 10mM HEPES, pH 7.4 for final conc. of 1:120). This was allowed to sit for 10 min on ice and was followed by the addition of 5 ul peptide (80 uM final conc.), 10ul of 4X Buffer (Table A), 0.25 uL ^33P-ATP and 12 uL H2O. The reaction was allowed to run for 90 min at room temperature and was followed by spotting the entire volume on to precut P81 filter papers. The filter discs were washed 2X with 0.5% phosphoric acid and radioactivity was measured using a liquid scintillation counter.

[12] = molecular target: epidermal growth factor receptor kinase (Homo sapiens, UniProt P00533); assay: Inhibition of Epidermal Growth Factor Receptor Kinase (EGF-R), cell membrane preparation (A431 membrane extract), RR-SRC peptide phosphorylation; settings: average of the number of tests
epidermal growth factor receptor kinase, sequence (P00533 25-1210): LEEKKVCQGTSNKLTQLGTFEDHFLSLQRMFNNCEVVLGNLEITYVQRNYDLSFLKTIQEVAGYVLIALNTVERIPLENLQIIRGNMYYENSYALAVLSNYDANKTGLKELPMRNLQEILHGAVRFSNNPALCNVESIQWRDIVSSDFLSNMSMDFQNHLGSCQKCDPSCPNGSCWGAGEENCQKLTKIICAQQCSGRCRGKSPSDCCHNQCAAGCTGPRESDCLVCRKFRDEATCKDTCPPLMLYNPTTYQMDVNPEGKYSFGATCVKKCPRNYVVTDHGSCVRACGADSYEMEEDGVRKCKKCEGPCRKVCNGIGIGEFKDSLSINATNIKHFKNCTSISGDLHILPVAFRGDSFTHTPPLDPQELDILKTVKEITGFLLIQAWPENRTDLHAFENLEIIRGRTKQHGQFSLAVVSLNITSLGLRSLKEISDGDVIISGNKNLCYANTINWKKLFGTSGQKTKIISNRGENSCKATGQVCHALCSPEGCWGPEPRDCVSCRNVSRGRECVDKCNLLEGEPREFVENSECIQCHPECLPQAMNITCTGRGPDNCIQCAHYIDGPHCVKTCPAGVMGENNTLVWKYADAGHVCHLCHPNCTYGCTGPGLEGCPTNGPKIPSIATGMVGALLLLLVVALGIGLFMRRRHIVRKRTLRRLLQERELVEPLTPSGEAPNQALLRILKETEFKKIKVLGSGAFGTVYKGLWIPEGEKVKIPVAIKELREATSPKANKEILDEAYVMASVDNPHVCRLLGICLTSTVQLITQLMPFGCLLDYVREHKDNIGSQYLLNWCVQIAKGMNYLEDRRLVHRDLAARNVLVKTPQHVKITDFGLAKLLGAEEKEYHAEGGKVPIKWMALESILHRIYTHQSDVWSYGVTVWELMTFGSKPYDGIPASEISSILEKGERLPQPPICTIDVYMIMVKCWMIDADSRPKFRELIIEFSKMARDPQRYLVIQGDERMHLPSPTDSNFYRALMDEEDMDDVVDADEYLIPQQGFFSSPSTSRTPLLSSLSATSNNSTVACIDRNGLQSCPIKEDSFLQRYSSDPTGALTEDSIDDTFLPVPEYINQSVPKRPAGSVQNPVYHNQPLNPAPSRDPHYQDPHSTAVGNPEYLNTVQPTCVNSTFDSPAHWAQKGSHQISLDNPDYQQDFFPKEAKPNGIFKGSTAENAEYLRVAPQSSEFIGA
Experimental: Test compounds were evaluated for their ability to inhibit the phosphorylation of the tyrosine residue of a peptide substrate catalyzed by the enzyme epidermal growth factor receptor kinase. […] The enzyme was obtained as a membrane extract of A431 cells (American Type Culture Collection, Rockville, MD). A431 cells were grown in T175 flasks to 80% confluency. The cells were washed twice with phosphate buffered saline (PBS) without Ca^2+. Flasks were rotated for 1.5 hours in 20 mL PBS with 1.0 mM ethylenediaminetetraacetic acid (EDTA) at room temperature and centrifuged at 600g for 10 minutes. […]
An aliquot of the A431 membrane extract (10 mg/mL) was diluted in 30 mM HEPES (pH 7.4) to give a protein concentration of 50 ug/mL. […] The % inhibition of the test compound was determined for at least three different concentrations and the IC50 value was evaluated from the dose response curve. […] CPM(control) is in units of counts per minute and was a number expressing the amount of radiolabled ATP (γ-^33P) incorporated onto the RR-SRC peptide substrate by the enzyme after 30 minutes at 30°C in the absence of test compound as measured by liquid scintillation counting. […]

T1 sequence (P00533 669-1210): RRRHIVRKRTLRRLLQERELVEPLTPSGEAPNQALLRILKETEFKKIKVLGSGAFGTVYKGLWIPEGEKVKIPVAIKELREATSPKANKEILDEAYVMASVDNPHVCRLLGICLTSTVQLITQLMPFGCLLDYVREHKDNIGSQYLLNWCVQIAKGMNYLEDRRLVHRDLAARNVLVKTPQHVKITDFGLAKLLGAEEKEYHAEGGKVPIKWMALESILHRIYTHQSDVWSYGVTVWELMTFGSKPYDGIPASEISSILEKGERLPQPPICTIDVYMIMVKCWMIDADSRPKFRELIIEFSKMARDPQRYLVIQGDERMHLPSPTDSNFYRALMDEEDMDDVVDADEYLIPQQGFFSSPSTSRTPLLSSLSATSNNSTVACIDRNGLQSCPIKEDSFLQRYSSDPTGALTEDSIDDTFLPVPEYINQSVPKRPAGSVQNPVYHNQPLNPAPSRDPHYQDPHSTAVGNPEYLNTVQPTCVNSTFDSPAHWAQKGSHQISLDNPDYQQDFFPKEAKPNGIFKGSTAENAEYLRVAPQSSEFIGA

Compound | %T/C Day 16 ([1]; 10 mg/kg/dose PO (footnote: IP)) [%] | %T/C Day 16 ([1]; 20 mg/kg/dose PO (footnote: IP)) [%] | %T/C Day 16 ([1]; 40 mg/kg/dose PO (footnote: IP)) [%] | IC50 [2] [µg/mL] | IC50 [3] [µg/mL] | IC50 [4] [µg/mL] | IC50 [5] [µg/mL] | IC50 [6] [µg/mL] | IC50 [7] [µg/mL] | IC50 [8] [µg/mL] | IC50 [9] [µg/mL] | S/T (No. Survivors/No. Treated on Day +28 post tumor staging) ([10]; Table 5: 40 PO, days 1 through 10) | %T/C Day 7 ([10]; Table 5: 40 PO, days 1 through 10, Day 7) [%] | %T/C Day 14 ([10]; Table 5: 40 PO, days 1 through 10, Day 14) [%] | %T/C Day 21 ([10]; Table 5: 40 PO, days 1 through 10, Day 21) [%] | %T/C Day 28 ([10]; Table 5: 40 PO, days 1 through 10, Day 28) [%] | inhibition of tumor growth in vivo (result in words) ([10]; summary of the results of TABLE 4 / TABLE 5) | IC50 [11] [nM] | IC50 [12] [nM]
CN(C)CC#CC(=O)Nc1ccc2ncnc(Nc3cccc(Br)c3)c2c1 [Example 21, 4-Dimethylamino-but-2-ynoic acid [4-(3-bromo-phenylamino)-quinazolin-6-yl]-amide] | 56 | 82 | 84 | – | – | – | – | – | – | – | – | – | – | – | – | – | – | – | –
CCN(CC)CC#CC(=O)Nc1ccc2ncnc(Nc3cccc(Br)c3)c2c1 [Example 25, 4-Diethylamino-but-2-ynoic acid [4-(3-bromo-phenylamino)-quinazolin-6-yl]-amide] | – | – | – | 0.04 (≈ 0.0884 µM) | 0.07 (≈ 0.155 µM) | 0.74 (≈ 1.64 µM) | 0.06 (≈ 0.133 µM) | 0.004 (≈ 0.00884 µM) | 0.04 (≈ 0.0884 µM) | 0.05 (≈ 0.111 µM) | 0.1 (≈ 0.221 µM) | 4/5 | 71 | 33 | 40 | 52 | effective inhibitor of tumor growth in vivo | 14 | –
CCOc1c(Nc2ccc3ncnc(Nc4cccc(Br)c4)c3c2)c(=O)c1=O [Example 48, 3-[4-(3-Bromo-phenylamino)-quinazolin-6-ylamino]-4-ethoxy-cyclobut-3-ene-1,2-dione] | – | – | – | 3.71 (≈ 8.45 µM) | 2.81 (≈ 6.4 µM) | 5.42 (≈ 12.3 µM) | 3.11 (≈ 7.08 µM) | 3.79 (≈ 8.63 µM) | 4.74 (≈ 10.8 µM) | 5.48 (≈ 12.5 µM) | 3.55 (≈ 8.08 µM) | – | – | – | – | – | – | 2 | –
CN(C)c1c(Nc2ccc3ncnc(Nc4cccc(Br)c4)c3c2)c(=O)c1=O [Example 49, 3-[4-(3-Bromo-phenylamino)-quinazolin-6-ylamino]-4-dimethylamino-cyclobut-3-ene-1,2-dione] | – | – | – | 3.16 (≈ 7.21 µM) | 3.61 (≈ 8.24 µM) | 6.72 (≈ 15.3 µM) | 2.83 (≈ 6.46 µM) | 3.57 (≈ 8.15 µM) | 4.81 (≈ 11 µM) | 5.2 (≈ 11.9 µM) | 3.48 (≈ 7.94 µM) | – | – | – | – | – | – | 100 | –
CNc1c(Nc2ccc3ncnc(Nc4cccc(Br)c4)c3c2)c(=O)c1=O [Example 50, 3-[4-(3-Bromo-phenylamino)-quinazolin-6-ylamino]-4-methylamino-cyclobut-3-ene-1,2-dione] | – | – | – | > 100 | > 100 | > 100 | > 100 | > 100 | > 100 | > 100 | > 100 | – | – | – | – | – | – | 0.4 | –
Nc1c(Nc2ccc3ncnc(Nc4cccc(Br)c4)c3c2)c(=O)c1=O [Example 51, 3-Amino-4-[4-(3-bromo-phenylamino)-quinazolin-6-ylamino]-cyclobut-3-ene-1,2-dione] | – | – | – | 6.92 (≈ 16.9 µM) | > 100 | > 100 | 6.84 (≈ 16.7 µM) | 6.21 (≈ 15.1 µM) | 56.9 (≈ 139 µM) | > 100 | 56.5 (≈ 138 µM) | – | – | – | – | – | – | 7 | –
COCCOCC#CC(=O)Nc1ccc2ncnc(Nc3cccc(Br)c3)c2c1 [Example 55, 4-(2-Methoxy-ethoxy)-but-2-ynoic acid [4-(3-bromo-phenylamino)-quinazolin-6-yl]-amide] | – | – | – | 0.5 (≈ 1.1 µM) | 0.1 (≈ 0.22 µM) | 5 (≈ 11 µM) | 0.4 (≈ 0.879 µM) | 0.3 (≈ 0.659 µM) | 0.02 (≈ 0.0439 µM) | 2.8 (≈ 6.15 µM) | 0.2 (≈ 0.439 µM) | – | – | – | – | – | – | 2 | –
COCOCC#CC(=O)Nc1ccc2ncnc(Nc3cccc(Br)c3)c2c1 [Example 57, 4-Methoxymethoxy-but-2-ynoic acid [4-(3-bromo-phenylamino)-quinazolin-6-yl]-amide] | – | – | – | 2.5 (≈ 5.67 µM) | 1.8 (≈ 4.08 µM) | 8.7 (≈ 19.7 µM) | 2.8 (≈ 6.35 µM) | 1.2 (≈ 2.72 µM) | 0.7 (≈ 1.59 µM) | 5.7 (≈ 12.9 µM) | 0.9 (≈ 2.04 µM) | – | – | – | – | – | – | 8 | –
C=C(CNc1ccc2ncnc(Nc3cccc(Br)c3)c2c1)C(=O)OC [Example 59, 2-{[4-(3-Bromo-phenylamino)-quinazolin-6-ylamino]-methyl)-acrylic acid methyl ester] | – | – | – | 0.603 (≈ 1.46 µM) | 0.581 (≈ 1.41 µM) | 1.58 (≈ 3.82 µM) | 0.315 (≈ 0.762 µM) | – | 0.424 (≈ 1.03 µM) | – | 0.482 (≈ 1.17 µM) | – | – | – | – | – | – | – | 1.26
COC(=O)/C=C/CNc1ccc2ncnc(Nc3cccc(Br)c3)c2c1 [Example 60, (E)-4-[4-(3-Bromo-phenylamino)-quinazolin-6-ylamino]-but-2-enoicacid methyl ester] | – | – | – | 0.626 (≈ 1.51 µM) | 1.89 (≈ 4.57 µM) | 0.566 (≈ 1.37 µM) | 0.35 (≈ 0.847 µM) | – | 0.749 (≈ 1.81 µM) | – | 0.725 (≈ 1.75 µM) | – | – | – | – | – | – | – | 34
CC#CC(=O)Nc1ccc2ncnc(Nc3cccc(N(C)C)c3)c2c1 [Example 61, But-2-ynoic acid [4-(3-dimethylamino-phenylamino)-quinazolin-6-yl]-amide] | – | – | – | 1.39 (≈ 4.02 µM) | 0.43 (≈ 1.24 µM) | 3.62 (≈ 10.5 µM) | 0.73 (≈ 2.11 µM) | 0.04 (≈ 0.116 µM) | 1.86 (≈ 5.38 µM) | 4.35 (≈ 12.6 µM) | 0.5 (≈ 1.45 µM) | – | – | – | – | – | – | 80 | –
